Assay [1] has as its target human RIPK2 recombinant kinase domain (Homo sapiens, UniProt O43353, R171C). The assay is described as follows: Fluorescence-based thermal shift assay. Particulars: for ΔTm at 10 µM: read-out: thermal shift (ΔTm); for thermal shift (ΔTm): RIPK2 2 μM, inhibitor 10 μM.
The subject of assay [2] is NF-κB activation in HEKBlue cells expressing NOD2. The assay can be described thus: HEKBlue NF-κB-SEAP reporter activation assay, L18-MDP stimulation. The note with it: for inhibition of NOD2 (MDP) response in HEKBlue cells: Figure S5B; for EC50: Homo sapiens, HEK-Blue, 8 h, read-out: NFκB activity EC50.
In the next assay the target is Abl (Homo sapiens, UniProt P00519). The assay is described as follows: ADPGlo in vitro kinase assay. Type of assay: biochemical. Particulars: Figure S5A. As for the experimental part:
(§1) For ADPGlo (Promega) assays, 1 ng of Abl or 10 ng of RIPK2 was diluted in reaction buffer (40 mM Tris-HCl [pH 7.5], 20 mM MgCl2, 0.5 mM DTT, and 0.01% BSA) supplemented with 50 μM ATP and a 10-point dose range of inhibitors. Detailed information is provided in the Supplemental Experimental Procedures.
(§2) 40C centrifuge at 14,000 rpm for 15 min to collect lysates. Protein concentrations were […]
(§3) Equal amounts of proteins were separated using 8-10% SDS-PAGE, followed by overnight incubations with antibodies according to the manuf acturer’s recommendations.
(§4) AD P G l o in vitro kinase assays
(§5) For ADPGlo (Promega) assays, 1 ng Abl or 10 ng of RIPK2 was diluted in reaction buff er (40 mM Tris-HCl pH 7.5, 20 mM MgCl2, 0.5 m M DTT, 0.01% BSA) supplemented with 50 µM ATP and 10-point dose range of inhibitors. Reactions were performed at room temperature for 1 hour. Reactions were performed in 5 µL total volume (5% final concentration of DMSO) and stopped by addition of 5 µL of ADPGlo reagent for 40 min at room temperature. Luminescent signal was generated by addition of 10 µL of kinase detection reagent for 30 minutes at room temperature and determined using Victor3V platereader (Perkin Elmer). Specific signal was calculated by subtracting values in the wells without protein and inhibitor from the values in the test wells. Inhibition, % = ((specif ic signal (DMSO control) - specif ic signal (inhibitor))/ (specif ic signal (DMSO control))) x 100%. Non-linear regression to determine IC50 values was perf ormed using Prism software (GraphPad). qPCR analysis in RAW 264.7 cells
(§6) RAW cells were seeded at 2X105 cells/well in 12 well plates. Af ter 24 hours, cells were treated with inhibitors and stimulated with 10 µg/mL MDP f or 24 hours. Total RNAs were isolated using […]

For assay [3], the target named is RIPK2 (Homo sapiens, UniProt O43353). The assay is described as follows: ADPGlo in vitro kinase assay. Type of assay: biochemical. The note with it: Figure S5A. As for the experimental part: as §1, §2, §3, §4, §5, §6
Chain of RIPK2 (Homo sapiens, UniProt O43353) (O43353 18-294 limits assumed): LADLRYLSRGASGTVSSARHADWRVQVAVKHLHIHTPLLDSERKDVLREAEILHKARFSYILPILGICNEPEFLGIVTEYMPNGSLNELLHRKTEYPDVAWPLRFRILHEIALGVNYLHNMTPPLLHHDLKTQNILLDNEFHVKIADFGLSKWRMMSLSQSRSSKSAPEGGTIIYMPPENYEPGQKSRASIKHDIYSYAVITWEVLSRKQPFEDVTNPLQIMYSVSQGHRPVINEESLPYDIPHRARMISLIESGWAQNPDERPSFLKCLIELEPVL
Assay [4] relates to RIPK2. Particulars: ref Vogt et al., 2011; cited from earlier work.
The subject of assay [5] is LPS pathway in THP-1 cells. The assay is described as follows: Flow cytometry of TNF production in THP-1 cells, LPS. Particulars: 10 μM. It counts as cell-based, human. Here is the method: Figure S7, Related to Figure 7. Inhibition of NOD2 signaling in the human monocytic cell
line THP-1. Representative FACS blots (A) and quantif ication of TNF production (B) in THP-1
cells stimulated with L18-MDP or LPS. In indicated conditions cells were preincubated with
k inase inhibitors for 1 hour before activation of NOD2 and TLR4 receptor for 2.5 hours.
(1 picture or pasted object on this page, not shown here)

The subject of assay [6] is RIPK2 ubiquitination in THP-1 cells. The assay can be described thus: TUBE purification of ubiquitin conjugates, L18-MDP-stimulated THP-1 cells. The note with it: 100 nM pre-treatment, 200 ng/ml L18-MDP.
For assay [7], the system named is phospho-Ser176-RIPK2 (p-RIPK2) in NOD2-expressing HEK293 cells. The assay is described as follows: Western blot of phospho-Ser176-RIPK2 in HEKBlue cells after L18-MDP.
Assay [8] has as its system NOD2-dependent TNF production in primary human monocytes. The assay can be described thus: Flow cytometry of intracellular TNF in primary human monocytes, L18-MDP. It counts as cell-based. The note with it: 200 ng/ml L18-MDP. Here is the method: Experimental conditions are measured in 4–5 healthy donors. […] Gray background indicates range without inhibitors. See also Figure S7.

Data on twelve compounds can be found in paper PMC4579271, “Inflammatory Signaling by NOD-RIPK2 Is Inhibited by Clinically Relevant Type II Kinase Inhibitors” (Chemistry & Biology, 2015).

Molecules are shown by their SMILES. Where two headings read alike, the source gives them in different places.

Chain of human RIPK2 recombinant kinase domain (O43353 8-317 R171C): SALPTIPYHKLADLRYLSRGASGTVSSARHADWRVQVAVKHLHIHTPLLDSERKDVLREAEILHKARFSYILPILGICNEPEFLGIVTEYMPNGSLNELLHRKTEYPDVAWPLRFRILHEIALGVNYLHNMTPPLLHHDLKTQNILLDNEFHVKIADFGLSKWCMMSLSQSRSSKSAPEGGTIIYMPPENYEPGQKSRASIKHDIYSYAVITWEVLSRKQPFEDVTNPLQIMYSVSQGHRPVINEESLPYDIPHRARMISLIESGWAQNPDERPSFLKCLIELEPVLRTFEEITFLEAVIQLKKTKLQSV
Chain of Abl (P00519 whole entry, species assumed): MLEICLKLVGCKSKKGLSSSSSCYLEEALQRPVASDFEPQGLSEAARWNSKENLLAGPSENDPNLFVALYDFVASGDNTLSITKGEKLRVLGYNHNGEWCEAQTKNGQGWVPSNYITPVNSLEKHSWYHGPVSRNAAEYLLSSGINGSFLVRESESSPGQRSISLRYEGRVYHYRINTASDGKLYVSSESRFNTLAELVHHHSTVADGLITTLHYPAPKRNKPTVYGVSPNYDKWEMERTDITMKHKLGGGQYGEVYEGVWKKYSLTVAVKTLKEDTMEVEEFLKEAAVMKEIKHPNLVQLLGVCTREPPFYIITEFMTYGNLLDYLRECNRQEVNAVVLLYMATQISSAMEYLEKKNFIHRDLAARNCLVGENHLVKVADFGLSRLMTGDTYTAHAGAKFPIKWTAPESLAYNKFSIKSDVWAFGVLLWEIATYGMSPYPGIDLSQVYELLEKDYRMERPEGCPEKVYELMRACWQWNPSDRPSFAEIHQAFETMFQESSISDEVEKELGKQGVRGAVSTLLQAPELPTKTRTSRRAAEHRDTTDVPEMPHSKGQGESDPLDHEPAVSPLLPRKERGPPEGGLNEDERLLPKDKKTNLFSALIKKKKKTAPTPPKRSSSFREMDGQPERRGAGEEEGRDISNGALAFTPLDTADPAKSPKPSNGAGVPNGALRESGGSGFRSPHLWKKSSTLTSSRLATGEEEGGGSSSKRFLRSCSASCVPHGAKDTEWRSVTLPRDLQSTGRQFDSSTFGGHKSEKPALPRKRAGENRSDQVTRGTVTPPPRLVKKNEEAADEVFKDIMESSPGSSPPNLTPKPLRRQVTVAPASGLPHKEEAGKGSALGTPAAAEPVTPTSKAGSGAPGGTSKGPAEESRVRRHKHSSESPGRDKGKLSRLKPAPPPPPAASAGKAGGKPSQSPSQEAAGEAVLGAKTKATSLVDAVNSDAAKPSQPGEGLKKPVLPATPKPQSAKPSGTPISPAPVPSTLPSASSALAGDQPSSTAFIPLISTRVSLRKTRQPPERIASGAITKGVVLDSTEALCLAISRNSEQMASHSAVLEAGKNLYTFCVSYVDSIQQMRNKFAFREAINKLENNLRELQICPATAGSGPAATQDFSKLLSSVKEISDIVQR

Regarding `CN1CCC(Nc2ncc3ncnc(Nc4ccc(F)c(Cl)c4)c3n2)CC1` [BIBX1382], in assay [1], the ΔTm at 10 µM stood at 8.7 °C.
Regarding `CN1CCN(Cc2ccc(NC(=O)c3ccc(C(C)(C)C)c(C#Cc4cnc5cccnn45)c3)cc2C(F)(F)F)CC1` [CS6], in assay [2], the “inhibition of NOD2 (MDP) response in HEKBlue cells” value is on record as “did not inhibit”. Besides, the “inhibition of Abl kinase activity” value at Abl is on record as “loss of inhibition”. For the same compound, the “inhibition of RIPK2 in vitro” value on RIPK2 [3] is “loss of inhibition”.
Regarding `Cc1nc(Nc2ncc(C(=O)Nc3c(C)cccc3Cl)s2)cc(N2CCN(CCO)CC2)n1` [Dasatinib], the ΔTm at 10 µM in assay [1] came to 9.5 °C.
Same read-out and setting: the same measure for `c1cc(-c2cnn3cc(-c4ccc(OCCN5CCCCC5)cc4)cnc23)ccn1` [Dorsomorphin]: 9.6 °C.
With `COC(=O)[C@@]1(O)C[C@H]2O[C@]1(C)n1c3ccccc3c3c4c(c5c6ccccc6n2c5c31)C(=O)NC4` [K252a], the “thermal shift (ΔTm)” value in assay [1] turned out to be 10.0 °C.
In the case of `c1ccc2c(-c3cnn4cc(-c5ccc(N6CCNCC6)cc5)cnc34)ccnc2c1` [LDN-193189], the “thermal shift (ΔTm)” value in [1] is 12.1 °C. For the same compound, in the assay with RIPK2 [4], the IC50 was 25 nM.
For the compound `CN[C@@H]1C[C@H]2O[C@@](C)([C@@H]1OC)n1c3ccccc3c3c4c(c5c6ccccc6n2c5c31)C(=O)NC4` [Staurosporine], the ΔTm at 10 µM in [1] worked out at 9.1 °C.
With `Cc1cccc(-c2nn(C(=S)Nc3ccccc3)cc2-c2ccnc3ccccc23)n1` [TGFβ inhibitor IV (A-83-01)], the “thermal shift (ΔTm)” value in assay [1] was 8.4 °C.
Take `COc1cc2ncnc(Nc3ccc(F)c(Cl)c3)c2cc1OCCCN1CCOCC1` [gefitinib]: the “LPS pathway TNF production” value in [5] is given as “also inhibited the LPS pathway”. Besides, the “L18-MDP-induced RIPK2 ubiquitination” value in assay [6] is given as “less robust inhibitory effects”.
In the case of `Cc1cn(-c2cc(NC(=O)c3ccc(C)c(Nc4nccc(-c5cccnc5)n4)c3)cc(C(F)(F)F)c2)cn1` [nilotinib], in [2], the “inhibition of NOD2 (MDP) response in HEKBlue cells” value is listed as “did not inhibit”. The “inhibition of RIPK2 in vitro” value at RIPK2 [3] is “did not inhibit”.
`CNC(=O)c1cc(Oc2ccc(NC(=O)Nc3ccc(Cl)c(C(F)(F)F)c3)c(F)c2)ccn1` [regorafenib]: the “inhibition of L18-MDP-induced p-RIPK2” value in assay [7] (1 μg/ml L18-MDP, 30 min) is listed as “inhibited by low nanomolar concentrations”. For the same compound, the EC50 in assay [2] worked out at 3.8 nM. Also, in assay [6], the “L18-MDP-induced RIPK2 ubiquitination” value is on record as “less robust inhibitory effects”. For the same compound, the “concentration completely abrogating NOD2-dependent TNF production” value in assay [8] is reported as 100 nM.
Consider `CNC(=O)c1cc(Oc2ccc(NC(=O)Nc3ccc(Cl)c(C(F)(F)F)c3)cc2)ccn1` [sorafenib], for which the “inhibition of L18-MDP-induced p-RIPK2” value in [7] is given as “inhibited by low nanomolar concentrations”. In addition, the EC50 in [2] turned out to be 16.9 nM.
